Test results from BindingDB's records for doi:10.1016/j.bmcl.2011.12.066 (Daiichi Sankyo, 2012).

Target: T1, Peroxisome proliferator-activated receptor gamma (Homo sapiens, UniProt P37231)
T1 sequence (P37231 whole entry): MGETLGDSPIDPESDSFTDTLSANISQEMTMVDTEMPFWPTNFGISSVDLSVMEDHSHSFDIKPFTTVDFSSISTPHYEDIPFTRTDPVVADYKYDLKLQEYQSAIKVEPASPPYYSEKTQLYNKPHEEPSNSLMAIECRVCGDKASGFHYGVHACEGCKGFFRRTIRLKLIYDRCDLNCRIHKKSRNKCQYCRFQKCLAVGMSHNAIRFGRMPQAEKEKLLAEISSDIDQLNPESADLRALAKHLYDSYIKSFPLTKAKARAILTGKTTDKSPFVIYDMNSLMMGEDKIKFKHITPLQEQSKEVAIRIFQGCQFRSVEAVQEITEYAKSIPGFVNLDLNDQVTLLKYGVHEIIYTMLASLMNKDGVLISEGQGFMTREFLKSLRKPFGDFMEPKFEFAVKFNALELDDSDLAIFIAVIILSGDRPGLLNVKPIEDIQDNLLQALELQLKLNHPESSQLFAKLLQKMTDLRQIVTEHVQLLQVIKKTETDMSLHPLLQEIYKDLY
Experiment: Partial agonist activity at human PPARgamma expressed in MG-63 cells by reporter gene-based transactivation assay

Row | SMILES | EC50
1 | COc1cc(O)c2c(c1C(=O)NCc1cc(O)cc3ccccc13)OC1=CC(=O)C(C(C)=O)C(=O)[C@]12C (some centres not stated) | 130 nM
2 | COC(=O)CCc1cc(CNC(=O)c2c(OC)cc(O)c3c2OC2=CC(=O)C(C(C)=O)C(=O)[C@]23C)c2ccccc2c1 (some centres not stated) | 130 nM
